This note sets out measurements from article PMC7956753, “Development of ^18F-Labeled Radiotracers for PET Imaging of the Adenosine A2A Receptor: Synthesis, Radiolabeling and Preliminary Biological Evaluation” (International Journal of Molecular Sciences, 2021).

Where two headings read alike, the source gives them in different places.

The target of data set [1] is T1, human A1R (Homo sapiens, UniProt P30542).
T1 sequence (P30542 1-326): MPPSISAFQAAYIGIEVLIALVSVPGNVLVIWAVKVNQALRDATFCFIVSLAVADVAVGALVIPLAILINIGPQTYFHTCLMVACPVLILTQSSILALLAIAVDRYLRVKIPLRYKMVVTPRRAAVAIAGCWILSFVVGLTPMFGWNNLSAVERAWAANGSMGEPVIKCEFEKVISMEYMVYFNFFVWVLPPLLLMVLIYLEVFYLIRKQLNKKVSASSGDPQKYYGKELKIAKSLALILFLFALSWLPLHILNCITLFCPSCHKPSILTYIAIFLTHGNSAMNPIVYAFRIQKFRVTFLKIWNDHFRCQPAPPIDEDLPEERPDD
Briefly: In vitro radioligand binding assay with [3H]DPCPX on membranes of CHO-K1 cells stably transfected with human A1R.

In data set [2] the target is human A2AR (Homo sapiens, UniProt P29274). Briefly: In vitro radioligand binding assay with [3H]ZM241385 on membranes of CHO-K1 cells stably transfected with human A2AR. The conditions noted are these: in-house, mean ± standard deviation (n ≥ 3) or mean (n = 2, single values in brackets), Cheng-Prusoff.
A short description of data set [3]: In vitro chemical stability in saline, PBS and n-octanol. The following applies: 37 °C up to 60 min. In kind it is physicochemical. As to the method: (§1) The chemical stability of [^18F]PPY1 and [^18F]PPY2 was investigated in isotonic saline, phosphate-buffered saline (PBS, pH 7.4) and n-octanol by incubation at 37 °C. Samples were taken at 15, 30 and 60 min of incubation time and analyzed by radio-TLC and radio-HPLC. LogD7.4 values of [^18F]PPY1 and of [^18F]PPY2 were experimentally determined in n-octanol/PBS at RT by the shake-flask method. The measurements were performed in triplicate.

A short description of data set [4]: Lipophilicity (LogD7.4), shake-flask method in n-octanol/PBS. The format is physicochemical. The following applies: pH 7.4, n-octanol-PBS, RT, n = 3. The protocol: as §1
Data set [5] is described as follows: PET/MR imaging (brain uptake and organ distribution). In kind it is in vivo. The conditions noted are these: CD-1 mice; for SUV60 min bladder / SUV60 min small intestine: 60 min; for maximum SUV ratio of striatum-to-cerebellum: after 4 min; for initial brain uptake, standardized uptake value (SUV): between 2 and 3 min; for initial uptake in striatum and cerebellum: followed by a fast washout. As to the method: For the time of the experiments, CD-1 mice were kept in a dedicated climatic chamber with free access to water and food under a 12:12 h dark:light cycle at a constant temperature (24 °C). The animals were anaesthetized (anesthesia unit U-410; agntho’s; Lidingö; Sweden) with isoflurane (1.8%, 0.35 L/min) delivered in a 60% oxygen/40% air mixture (Gas Blender 100 Series, MCQ instruments, Rome, Italy) and maintained at 37 °C with a thermal bed system. The formulated radiotracer was injected into the tail vein ([^18F]PPY1: 3.2–4.3 MBq in 150 µL isotonic saline and <1% EtOH/DMSO; Am: 150 GBq/µmol; […]; Am: 80 GBq/µmol) followed by a 60 min PET/MR scan (PET/MR 1Tesla; nanoScan®, MEDISO Medical Imaging Systems, Budapest, Hungary). Each PET image was corrected for random coincidences, dead time, scatter and attenuation (AC), based on a whole body (WB) MR scan. The list mode data was sorted into sinograms using a framing scheme of 12 × 10 s, 6 × 30 s, 5 × 300 s, […]. The reconstruction parameters for the list mode data were 3D-ordered subset expectation maximization (OSEM), 4 iterations, 6 subsets, energy window: 400–600 keV, coincidence mode: 1–5, ring difference: 81. The mice were positioned prone in a special mouse bed (heated up to 37 °C), with the head fixed to a mouth piece for the anesthetic gas supply with isoflurane in 40% air and 60% oxygen (anesthesia unit: U-410, agnthos, Lidingö, Sweden; Gas blender: MCQ, Rome, Italy). The PET data were collected by a continuous WB scan during the entire investigation. Following the 60 min PET scan a T1 weighted WB gradient echo sequence (TR/TE: 20/6.4 ms, NEX: 1, FA: 25, FOV: 64 × 64 mm, matrix: 128 × 128, slice thickness: 0.5 mm) was performed for AC and anatomical orientation. Image registration and evaluation of the volume of interest (VOI) was done with PMOD 3.9 (PMOD technologies LLC, Zurich, Switzerland). The respective brain regions were identified using the mouse brain atlas template Ma-Benveniste-Mirrione-FDG. Spherical VOI with diameters of 1 to 2 mm were placed at the center of the liver, stomach, and spleen. Small intestine, kidney, and bladder VOI were delineated from the PET signal. Heart wall and blood were delineated from the T1 weighted image avoiding spill over from neighboring organs. The activity data is expressed as mean SUV of the overall VOI.

Data set [6] deals with T2, A2AR (Mus musculus, UniProt Q60613).
T2 construct: Brains of CD-1 mice frozen in isopentane were cut using a cryostat; from tissue; host or cells: CD-1 mouse brain sections
In words: In vitro autoradiography on mouse brain slices. In kind it is binding, CD-1 mice. The following applies: for fraction of total binding displaced by ZM241385 in striatum (specific binding): 10 µM ZM241385. As to the method: Brains of CD-1 mice frozen in isopentane were cut using a cryostat, thaw-mounted onto microscope slides, and after air-drying stored at −80 °C until use. Briefly, the brain sections were dried in a stream of cold air, and pre-incubated in 50 mM TRIS-HCl buffer (pH 7.4, 100 mM NaCl, 5 mM MgCl2, 1 mM EDTA) containing 1 µU/mL adenosine deaminase (ADA) for 15 min at RT. Afterwards, brain sections were incubated with 0.24 MBq/mL of [^18F]PPY1 (0.2 nM) or 0.26 MBq/mL of [^18F]PPY2 (5.1 nM) in buffer for 90 min at RT. Non-specific binding was determined in the presence of 10 µM ZM241385. Displacement of both radiotracers was evaluated with 10 µM PPY1 and PPY2, respectively. Subsequently, the sections were washed twice for 5 min in ice-cold TRIS-HCl buffer, and dipped for 5 s in ice-cold deionized water. The sections were rapidly dried in a stream of cold air before being exposed overnight on an imaging plate. Developed autoradiographs were analyzed in a phosphor imager (HD-CR 35, Duerr NDT GmbH, Bietigheim-Bissingen, Germany). Quantification was performed by using 2D-densitometric analysis (AIDA 2.31 software, raytest Isotopenmessgeräte GmbH, Straubenhardt, Germany).

Data set [7] can be described thus: In vivo metabolism (radiometabolite analysis of plasma and brain by radio-HPLC). The following applies: CD-1 mice, i.v., 30 min p.i., n = 2. As to the method:
The radiotracer was administered i.v. as bolus in awake CD-1 mice (40 MBq [^18F]PPY1; 30 MBq [^18F]PPY2; n = 2, respectively). At 30 min post injection (p.i.), blood samples were taken retroorbitally from the anesthetized animals. Plasma was separated by centrifugation at 8000 rpm at RT for 1 min (Centrifuge 5418, Eppendorf Vertrieb Deutschland GmbH, Wesseling-Berzdorf, Germany), and brain homogenized in 1 mL water on ice (10 strokes of a PTFE plunge at 1000 rpm in a borosilicate glass cylinder; Potter S Homogenizer; B. Braun Melsungen AG, Melsungen, Germany). For protein precipitation and extraction an ice-cold mixture of acetone/water (4/1; v/v) was used in a ratio of 4:1 (v/v) of solvent to plasma or brain homogenate, respectively. The samples were vortexed for 3 min, equilibrated on ice for 5 min, and centrifuged for 5 min at 10,000 rpm. After separating the supernatant, the precipitates were washed with 100 µL of the solvent mixture and subjected to the same procedure. The combined supernatants were concentrated at 75 °C under nitrogen flow to a final volume of approx. 100 µL and analyzed by analytical radio-HPLC (see section quality control). To determine the percentage of activity in the supernatants compared to total activity, aliquots of each step as well as the precipitates were quantified by a gamma counter (Wallac Wizard 1480; PerkinElmer, Turku, Finland).

Chain of human A2AR (P29274 whole entry): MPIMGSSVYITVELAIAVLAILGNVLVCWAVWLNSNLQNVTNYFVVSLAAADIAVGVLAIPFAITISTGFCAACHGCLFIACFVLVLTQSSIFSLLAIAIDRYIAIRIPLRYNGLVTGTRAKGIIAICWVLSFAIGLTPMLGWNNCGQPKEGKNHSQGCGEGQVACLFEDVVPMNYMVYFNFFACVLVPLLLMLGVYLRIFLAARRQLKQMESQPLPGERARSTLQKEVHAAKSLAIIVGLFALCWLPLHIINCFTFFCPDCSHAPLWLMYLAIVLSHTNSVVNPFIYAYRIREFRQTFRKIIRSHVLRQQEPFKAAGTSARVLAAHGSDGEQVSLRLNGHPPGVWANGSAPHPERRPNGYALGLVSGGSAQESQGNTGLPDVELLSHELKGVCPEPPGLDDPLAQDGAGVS
T2 sequence (Q60613 whole entry): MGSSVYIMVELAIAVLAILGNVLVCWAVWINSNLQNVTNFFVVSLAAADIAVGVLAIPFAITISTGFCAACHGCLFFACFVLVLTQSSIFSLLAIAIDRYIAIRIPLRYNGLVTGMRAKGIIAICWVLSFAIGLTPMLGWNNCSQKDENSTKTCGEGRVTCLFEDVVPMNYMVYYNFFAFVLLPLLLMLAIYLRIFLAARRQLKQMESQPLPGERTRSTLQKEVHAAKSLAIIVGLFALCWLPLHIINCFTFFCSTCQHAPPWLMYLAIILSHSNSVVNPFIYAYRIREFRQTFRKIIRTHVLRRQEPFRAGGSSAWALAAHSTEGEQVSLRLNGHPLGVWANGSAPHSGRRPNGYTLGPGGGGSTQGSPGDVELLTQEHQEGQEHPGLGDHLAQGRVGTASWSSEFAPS

By Ki is commonly meant a dissociation constant, usually derived from enzyme kinetics or from competition with a known ligand. `N#Cc1cccc(F)c1Cn1ncc2c(-c3ccco3)nc(N)nc21` [PPY15, 2-((6-Amino-4-(furan-2-yl)-1H-pyrazolo[3,4-d]pyrimidin-1-yl)methyl)-3-fluoro-benzonitrile]: the inhibition constant (Ki) in data set [1] is 470 nM; in data set [2] (Ki(hA2AR)), 12.3 nM.
For the molecule `Nc1nc(-c2ccco2)c2cnn(Cc3cccc(CCF)c3)c2n1` [PPY16, 1-(3-(2-Fluoroethyl)benzyl)-4-(furan-2-yl)-1H-yrazolo[3,4-d]pyrimidin-6-amine], the Ki is 69.2 ± 32.8 nM in data set [1] and 1.63 ± 0.22 nM in data set [2] (Ki(hA2AR)).
For the molecule `Nc1nc(-c2ccco2)c2cnn(Cc3cccc(OCCF)c3)c2n1` [PPY17, 1-(3-(2-Fluoroethoxy)benzyl)-4-(furan-2-yl)-1H-pyrazolo[3,4-d]pyrimidin-6-amine], the figures for the inhibition constant Ki in data set [1] and in data set [2] (Ki(hA2AR)) were 215 ± 38 nM and 4.5 ± 0.99 nM, respectively.
In the case of `Nc1nc(-c2ccco2)c2cnn(CCc3ccccc3F)c2n1` [PPY19, 1-(2-Fluorophenethyl)-4-(furan-2-yl)-1H-pyrazolo[3,4-d]pyrimidin-6-amine], the inhibitory constant (Ki) in data set [1] stood at 245 nM; in data set [2] (Ki(hA2AR)), 107 nM.
As for `Nc1nc(-c2ccco2)c2cnn(C(=O)c3ccccc3F)c2n1` [PPY21, (6-Amino-4-(furan-2-yl)-1H-pyrazolo[3,4-d]pyrimidin-1-yl)(2-fluorophenyl)-methanone], the results for the inhibitory constant (Ki) in data set [1] and in data set [2] (Ki(hA2AR)) were 1550 nM and 283 nM, respectively.
The term logD denotes the decadic logarithm of the distribution of all forms, ionised or not, between an organic phase and buffer at a given pH. Low values mean lower lipophilicity, high ones higher lipophilicity. For the molecule `Nc1nc(-c2ccco2)c2cnn(Cc3ccc([18F])cc3)c2n1` [[^18F]PPY1], in data set [3], the “Stability in saline, PBS and n-octanol” value is recorded as “proven”. Moreover, in data set [4], the log distribution coefficient (logD) was 1.59 ± 0.15. Further, in data set [5], the “initial SUV in heart, spleen, stomach and liver” value is on record as less than 3 SUV; the “specific binding in striatum in vivo (PET)” value is on record as “lack of specific binding”; the SUV60 min bladder was found to be 8.2 SUV; the “SUV60 min small intestine” value is listed as 21.9 SUV. For the same molecule, in data set [5], the “maximum SUV ratio of striatum-to-cerebellum” value was found to be 1.5; the “initial brain uptake, standardized uptake value (SUV)” value was 1.2–1.4 SUV; the “initial uptake in striatum and cerebellum” value is ~ 1.3 SUV. Also, in data set [6], the “distribution of radiotracer binding in mouse brain” value is “displaceable binding was detected in various brain regions” and the “fraction of total binding displaced by ZM241385 in striatum (specific binding)” value came out at 42%. Also, the “intact radiotracer in plasma, of total activity” value in data set [7] is reported as 13%.
On to `Nc1nc(-c2ccco2)c2cnn(Cc3ccccc3[18F])c2n1` [[^18F]PPY2], for which the “Stability in saline, PBS and n-octanol” value in data set [3] was “proven”. The same molecule had a logD in data set [4] of 2.01 ± 0.16. In data set [5], the “initial SUV in heart, spleen, stomach and liver” value was less than 3 SUV; the “specific binding in striatum in vivo (PET)” value is on record as “lack of specific binding”; the SUV60 min bladder stood at 18.5 SUV; the “SUV60 min small intestine” value was 6.7 SUV. Further, in data set [5], the “maximum SUV ratio of striatum-to-cerebellum” value came to 1.3; the “initial brain uptake, standardized uptake value (SUV)” value was 1.2–1.4 SUV; the “initial uptake in striatum and cerebellum” value was ~ 1.3 SUV. For the same molecule, in data set [6], the “distribution of radiotracer binding in mouse brain” value is recorded as “observed in the striatum” and the “fraction of total binding displaced by ZM241385 in striatum (specific binding)” value was determined as 62%. For the same molecule, in data set [7], the “intact radiotracer in brain, of total activity” value is recorded as 83% and the “intact radiotracer in plasma, of total activity” value amounted to 21%. Besides, the “intact radiotracer in brain, of total activity” value in data set [7] (listed as [18F]PPY2) is listed as “more than 76%”.
For the molecule “(6-Amino-4-(furan-2-yl)-1H-pyrazolo[3,4-d]pyrimidin-1-yl)(2-fluorophenyl)-methanone [PPY20]”, the inhibitory constant (Ki) in data set [1] (read-out: Ki(hA1R), in-house, mean ± standard deviation (n ≥ 3) or mean (n = 2, single values in brackets), Cheng-Prusoff) came out at 1420 nM; in data set [2] (read-out: Ki(hA2AR)) it was 275 nM.
